Drawing on patent US7781454B2 (priority 2006, dated 2010), this text covers IC50 and IC95 for 18 compounds.

The structures appear in SMILES notation. Where a name gives a salt, the structure may show the parent alone. Read-outs that look alike come from different tables or passages of the source. Where only a bound is given, the exact number is not on record here.

In test [1] the target is T1, mutant HIV reverse transcriptase (Y181C mutation) (Human immunodeficiency virus type 1 group M subtype B, UniProt P04585, Y768C).
T1 construct: against mutant HIV reverse transcriptase; made in house
Description: ECL assay for inhibition of mutant HIV reverse transcriptase (Y181C). Format: biochemical. As to the method:
(§1) 100 μL reaction mixtures were initiated with a combination of primer-template substrate ([…]) and dNTPs (0.6 μM dNTPs, 1.25 μM BrdUTP). The heterodimeric nucleic acid substrate was generated by annealing the DNA primer pD500 (described in Shaw-Reid et al., J. Biol. Chem., 278: 2777-2780; obtained from Integrated DNA Technologies) to t500, a 500 nucleotide RNA template created by in vitro transcription (see Shaw-Reid et al., J. Biol. Chem., 278: 2777-2780). After 1 hour incubation at 37° C., reactions were quenched by 10 μL of 1 N NaOH. Microtiter plates were incubated for an additional 30 minutes at room temperature and then neutralized with 10 μL of 1 N HCl. A mixture of detection buffer containing ruthenylated anti-BrdU antibody and streptavidin coated magnetic beads were added to the plate and incubated at room temperature for 1.5 hours prior to quantification via electrochemiluminescence instrument.
(§2) Analogous assays were conducted substituting mutant HIV strains to determine the in vitro inhibition of compounds of the present invention against mutant HIV reverse transcriptase. In one strain the reverse transcriptase has the Y181C mutation and in the other strain the reverse transcriptase has the K103N mutation. The mutations were generated with the QUIKCHANGE site-directed mutagenesis kit (Stratagene).

The subject of test [2] is wild type HIV-1. Description: Spread assay: inhibition of acute HIV-1 infection of T-lymphoid cells (WT). Format: cell-based. As to conditions: Human immunodeficiency virus 1, T-lymphoid; wild-type strain; 10% FBS; read-out: Spread (WT) CIC95. As to the method:
(§3) Assays for the inhibition of acute HIV-1 infection of T-lymphoid cells (alternatively referred to herein as the “spread assay”) were conducted in accordance with Vacca, J. P. et al., Proc. Natl. Acad. Sci. USA 1994, 91: 4096. The assays tested for inhibition of wild type HIV-1 and of HIV strains containing the Y181C or K103N mutation. […] The compounds of Examples 1 to 4 had CIC95 values of less than 10 micromolar in the assay employing the K103N mutant strain. […] Table C also reports the CIC95 values of the compounds of Examples 1-7, 9-13 and 15-29 obtained in the assays employing the Y181C mutant strain and the K103N mutant strain.

Test [3] deals with HIV strain containing the K103N mutation. Description: Spread assay: inhibition of HIV replication (K103N mutant strain). Format: cell-based. As to conditions: Human immunodeficiency virus 1, read-out: Spread (K103N) CIC95. Here is the method:
as §3

Test [4] deals with HIV-1 RT enzyme (wild-type) (Human immunodeficiency virus type 1 group M subtype B, UniProt P04585). Description: ECL assay for inhibition of HIV reverse transcriptase (WT). In kind it is biochemical. As to the method: as §1
The target of test [5] is T2, mutant HIV reverse transcriptase (K103N mutation) (Human immunodeficiency virus type 1 group M subtype B, UniProt P04585, K690N).
T2 construct: against mutant HIV reverse transcriptase; made in house
Put plainly: ECL assay for inhibition of mutant HIV reverse transcriptase (K103N). Format: biochemical. As to the method: as §1, §2

Test [6] relates to HIV strain containing the Y181C mutation. Put plainly: Spread assay: inhibition of HIV replication (Y181C mutant strain). In kind it is cell-based. The note with it: Human immunodeficiency virus 1, read-out: Spread (Y181C) CIC95. Here is the method: as §3
The mark [7] stands for this setting: Y181C mutant RT, read-out: ECL Assay (Y181C) IC50.
The mark [8] stands for this setting: K103N mutant RT, read-out: ECL Assay (K103N) IC50.

As to `N#Cc1cc(Cl)cc(Oc2c(Cl)ccc3c2nnn3Cc2n[nH]c3ncccc23)c1` [Example 4, 3-chloro-5-{[5-chloro-1-(1H-pyrazolo[3,4-b]pyridin-3-ylmethyl)-1H-1,2,3-benzotriazol-4-yl]oxy}benzonitrile], the 50% inhibitory concentration (IC50) in test [1] (setting [7]) came to 0.44 nM; in test [4], 0.24 nM; in test [5] (setting [8]), 0.41 nM. The IC95 in test [2] turned out to be 4 nM; in test [3], 5 nM; in test [6], 24 nM.

Take `N#Cc1cc(Cl)cc(Oc2c(Cl)ccc3c2cnn3Cc2n[nH]c3nc(N)ccc23)c1` [Example 3, 3-{[5-Chloro-4-(3-chloro-5-cyanophenoxy)-1H-indazol-1-yl]methyl}-1H-pyrazolo[3,4-b]pyridin-6-aminium chloride]: the IC50 in test [1] (setting [7]) came to 1.9 nM; in test [4] it was 0.6 nM; in test [5] (setting [8]), 1.7 nM. The IC95 came to 9 nM in test [2], 23 nM in test [3] and 77 nM in test [6].

Regarding `N#Cc1cc(Cl)cc(Oc2c(Cl)ccc3c2CCCN3Cc2n[nH]c3ncccc23)c1` [Example 27, 3-chloro-5-{[6-chloro-1-(1H-pyrazolo[3,4-b]pyridine-3-ylmethyl)-1,2,3,4-tetrahydroquinolin-5-yl]oxy}benzonitrile], the IC50 came to 160 nM in test [1] (setting [7]), 160 nM in test [4] and 640 nM in test [5] (setting [8]). Also, the figures for the IC95 in test [2] and in test [3] were 3280 nM and 7730 nM, respectively.

As for `N#Cc1cc(Cl)cc(Oc2c(Cl)ccc3c2ncn3Cc2n[nH]c3ncccc23)c1` [Example 7, 3-chloro-5-{[5-chloro-1-(1H-pyrazolo[3,4-b]pyridin-3-ylmethyl)-1H-benzimidazol-4-yl]oxy}benzonitrile dihydrochloride], the half-maximal inhibitory concentration (IC50) in test [1] was found to be 1.7 nM; in test [4] it was 0.92 nM; in test [5] it was 4.1 nM. The IC95 in test [2] is 28 nM; in test [3] it was 39 nM; in test [6], 225 nM.

Take `N#Cc1cc(Cl)cc(Oc2c(Cl)ccc3c2c(Cl)nn3Cc2n[nH]c3ncccc23)c1` [Example 2, 3-Chloro-5-{[3,5-dichloro-1-(1H-pyrazolo[3,4-b]pyridin-3-ylmethyl)-1H-indazol-4-yl]oxy}benzonitrile]: the 50% inhibitory concentration (IC50) in test [1] (setting [7]) was determined as 25 nM; in test [4], 3.9 nM; in test [5] (setting [8]) it was 12 nM. Also, the IC95 was 521 nM in test [2] and 2090 nM in test [3].

Take `N#Cc1cc(Cl)cc(Oc2c(Cl)ccc3c2nnn3CC(=O)c2cccnc2)c1` [Example 11, 3-chloro-5-{[5-chloro-1-(2-oxo-2-pyridin-3-ylethyl)-1H-1,2,3-benzotriazol-4-yl]oxy}benzonitrile]: the IC50 in test [1] (setting [7]) came to 30 nM; in test [4], 18 nM; in test [5] (setting [8]), 52 nM. In addition, the IC95 in test [2] turned out to be 381 nM; in test [3], 433 nM.

With `N#Cc1cc(Cl)cc(Oc2c(Cl)ccc3nn(Cc4nnc(-c5ccccc5)o4)nc23)c1` [Example 24, 3-chloro-5-({5-chloro-2-[(5-phenyl-1,3,4-oxadiazol-2-yl)methyl]-2H-1,2,3-benzotriazol-4-yl}oxy)benzonitrile], the IC50 is 47 nM in test [1] (setting [7]), 46 nM in test [4] and 150 nM in test [5] (setting [8]). In addition, the IC95 in test [2] and in test [3] was more than 833 nM each time.

`N#Cc1cc(Cl)cc(Oc2c(Cl)ccc3c2nnn3CC(=O)N2CCCC(C(N)=O)C2)c1` (centres unmarked) [Example 16, 1-{[5-chloro-4-(3-chloro-5-cyanophenoxy)-1H-1,2,3-benzotriazol-1-yl]acetyl}piperidine-3-carboxamide]: the results for the IC50 in test [1] (setting [7]), in test [4] and in test [5] (setting [8]) were 790 nM, 1100 nM and more than 1800 nM, respectively. The IC95 in test [2] and in test [3] was more than 833 nM each time.

With `Cc1ccn2c(Cc3n[nH]c4ncccc34)ncc2c1Oc1cc(Cl)cc(C#N)c1` [Example 25, 3-chloro-5-{[7-methyl-3-(1H-pyrazolo[3,4-b]pyridin-3-ylmethyl)imidazo[1,5-a]pyridin-8-yl]oxy}benzonitrile trifluoroacetate], the half-maximal inhibitory concentration (IC50) was found to be 33 nM in test [1], 20 nM in test [4] and 37 nM in test [5]. The results for the IC95 in test [2] and in test [3] were 115 nM and 362 nM, respectively.

`N#Cc1cc(Cl)cc(Oc2c(Cl)ccc3c2nnn3CC(=O)OCc2ccccc2)c1` [Example 15]: the results for the IC50 in test [1] (setting [7]), in test [4] and in test [5] (setting [8]) were 1.5 nM, 2.4 nM and 12 nM, respectively. For the same compound, the IC95 in test [2] and in test [3] was more than 833 nM throughout.

As for `N#Cc1cc(Cl)cc(Oc2c(Cl)ccc3c2nnn3Cc2nnc(-c3ccccc3)o2)c1` [Example 23, 3-chloro-5-({5-chloro-1-[(5-phenyl-1,3,4-oxadiazol-2-yl)methyl]-1H-1,2,3-benzotriazol-4-yl}oxy)benzonitrile], the concentration for half-maximal inhibition (IC50) amounted to 3.4 nM in test [1] (setting [7]), 6.1 nM in test [4] and 10 nM in test [5] (setting [8]). Also, the IC95 in test [2] is 96 nM; in test [3] it was more than 833 nM.

Regarding `N#Cc1cc(Cl)cc(Oc2c(Cl)ccc3c2nnn3Cc2n[nH]c3nc(N)ccc23)c1Cl` [Example 22, 3-({1-[(6-amino-1H-pyrazolo[3,4-b]pyridin-3-yl)methyl]-5-chloro-1H-1,2,3-benzotriazol-4-yl}oxy)-2,5-dichlorobenzonitrile], the IC50 in test [1] (setting [7]) is 0.79 nM; in test [4], 0.52 nM; in test [5] (setting [8]), 0.8 nM. Also, the results for the IC95 in test [2] and in test [3] were 4 nM and 9 nM, respectively.

Regarding `N#Cc1cc(Cl)cc(Oc2c(Cl)ccc3c2nnn3CCO)c1` [Example 28, 3-chloro-5-{[5-chloro-1-(2-hydroxyethyl)-1H-1,2,3-benzotriazol-4-yl]oxy}benzonitrile], the IC50 in test [1] (setting [7]) came out at 77 nM; in test [4], 68 nM; in test [5] (setting [8]), 210 nM. The results for the IC95 in test [2] and in test [3] were 557 nM and more than 833 nM, respectively.

As for `Cc1ccn2c(Cc3n[nH]c4ncccc34)nnc2c1Oc1cc(Cl)cc(C#N)c1` [Example 26, 3-chloro-5-{[7-methyl-3-(1H-pyrazolo[3,4-b]pyridin-3-ylmethyl)[1,2,4]triazolo[4,3-a]pyridin-8-yl]oxy}benzonitrile trifluoroacetate], the 50% inhibitory concentration (IC50) is 1200 nM in test [1], 220 nM in test [4] and 820 nM in test [5]. For the same compound, the IC95 in test [2] and in test [3] was more than 833 nM in each case.

Regarding `N#Cc1cc(Cl)cc(Oc2c(Cl)ccc3nn(Cc4n[nH]c5ncccc45)nc23)c1Cl` [Example 20, 2,5-dichloro-3-{[5-chloro-2-(1H-pyrazolo[3,4-b]pyridin-3-ylmethyl)-2H-1,2,3-benzotriazol-4-yl]oxy}benzonitrile], the results for the concentration for half-maximal inhibition (IC50) in test [1] (setting [7]), in test [4] and in test [5] (setting [8]) were 2.5 nM, 2.1 nM and 55 nM, respectively. Also, the IC95 in test [2] was 420 nM; in test [3], more than 833 nM.

`NCc1cc(Cl)cc(Oc2c(Cl)ccc3c2nnn3Cc2n[nH]c3ncccc23)c1Cl` [Example 21, 1-(2,5-dichloro-3-{[5-chloro-1-(1H-pyrazolo[3,4-b]pyridin-3-ylmethyl)-1H-1,2,3-benzotriazol-4-yl]oxy}phenyl)methanamine]: the values for the IC95 in test [2], in test [3] and in test [6] were 58 nM, 192 nM and 417 nM, respectively. Further, the IC50 in test [5] (setting [8]) worked out at 4.2 nM.

With `CN(Cc1ccccc1Cl)C(=O)Cn1nnc2c(Oc3cc(Cl)cc(C#N)c3)c(Cl)ccc21` [Example 9, N-(2-chlorobenzyl)-2-[5-chloro-4-(3-chloro-5-cyanophenoxy)-1H-1,2,3-benzotriazol-1-yl]-N-methylacetamide], the IC50 stood at 137 nM in test [1] (setting [7]), 61 nM in test [4] and 74 nM in test [5] (setting [8]). The IC95 in test [2] was 770 nM; in test [3], 807 nM.

Take `N#Cc1cc(C#N)cc(Oc2c(Cl)ccc3c2nnn3Cc2n[nH]c3ncccc23)c1` [Example 29, 5-{[5-chloro-1-(1H-pyrazolo[3,4-b]pyridin-3-ylmethyl)-1H-1,2,3-benzotriazol-4-yl]oxy}isophthalonitrile]: the figures for the IC50 in test [1] (setting [7]), in test [4] and in test [5] (setting [8]) were 1.3 nM, 0.9 nM and 1.4 nM, respectively. For the same compound, the IC95 in test [2] was 2.5 nM; in test [3] it was 3.1 nM.
